{
  "source": "patent US10322995B2",
  "about": "“Substituted cyano cycloalkyl penta-2,4-dienes, cyano cycloalkyl pent-2-en-4-ynes, cyano heterocyclyl penta-2,4-dienes and cyano heterocyclyl pent-2-en-4-ynes as active substances against abiotic plant stress” (BAYER CROPSCIENCE AKTIENGESELLSCHAFT, priority 2014, dated 2019)",
  "key": {"Brassica napus (BRSNS)": {"test_system": "Brassica napus (BRSNS)", "assay": "In vivo analyses Part C: drought stress, appearance vs stressed control plants in categories (BRSNS)", "parameters": "key: 0: no positive effect; 10: slight positive effect; 20: clear positive effect; 30: strong positive effect", "conditions": "appearance vs stressed control plants after recovery phase, efficacy range of 3-4 pots", "procedure": "Seeds of monocotyledonous and dicotyledonous crop plants were sown in sandy loam in plastic or wood-fibre pots, covered with soil or sand and cultivated in a greenhouse under good growth conditions. The test plants were treated at the early leaf stage (BBCH10-BBCH13). To assure uniform water supply before commencement of stress, the potted plants were supplied with water by dam irrigation prior to substance application. The inventive compounds were first formulated as wettable powders (WP) or dissolved in a solvent mixture. The further dilution was effected with water supplemented with 0.2% wetting agent (e.g. agrotin). The finished spray liquor was sprayed onto the green parts of the plant at an equivalent water application rate of 600 I/ha. Substance application was followed immediately by stress treatment of the plants. For this purpose, the wood-fibre pots were transferred in plastic inserts in order to prevent them from subsequently drying out too quickly. Drought stress was induced by gradual drying out under the following conditions: “Day”: 14 hours with illumination at 26-30° C. “Night”: 10 hours without illumination at 18-20° C. The duration of the respective stress phases was guided mainly by the condition of the stressed control plants. It was ended (by re-irrigating and transfer to a greenhouse with good growth conditions) as soon as irreversible damage was observed on the stressed control plants. The end of the stress phase was followed by an about 4-7-day recovery phase, during which the plants were once again kept under good growth conditions in a greenhouse. The duration of the recovery phase was guided mainly by when the trial plants had attained a state which enabled visual scoring of potential effects, and was therefore variable. Once this juncture had been reached, the appearance of the plants treated with test substances was recorded in comparison to the stressed control plants by the following categories: [table] For each substance and dosage, 3-4 pots were treated and evaluated. BRSNS=Brassica napus"}, "Zea mays (ZEAMX)": {"test_system": "Zea mays (ZEAMX)", "assay": "In vivo analyses Part A: drought stress, visual damage scoring, efficacy EF (ZEAMX)", "conditions": "spray application 250 g/ha, efficacy = reduction in damage intensity", "procedure": "Seeds of monocotyledonous and dicotyledonous crop plants were sown in sandy loam in wood-fibre pots, covered with soil or sand and cultivated in a greenhouse under good growth conditions. The test plants were treated at the early leaf stage (BBCH10-BBCH13). To assure uniform water supply before commencement of stress, the potted plants were supplied with water by dam irrigation prior to substance application. The inventive compounds, formulated in the form of wettable powders (WP), were sprayed onto the green parts of the plants as an aqueous suspension at an equivalent water application rate of 600 I/ha with addition of 0.2% wetting agent (e.g. agrotin). Substance application was followed immediately by stress treatment of the plants. For this purpose, the pots were transferred in plastic inserts in order to prevent them from subsequently drying out too quickly. Drought stress was induced by gradual drying out under the following conditions: “Day”: 14 hours with illumination at 26° C. “Night”: 10 hours without illumination at 18° C. The duration of the respective stress phases was guided mainly by the condition of the stressed control plants. […] Once this juncture was reached, the intensities of damage were scored visually in comparison to untreated, unstressed controls of the same age. The damage intensity was at first assessed in percent. […]"}},
  "data": [
    {"smiles": "CC/C(C#CC(O)(C1CCC1)C1(C#N)CC1)=C/C(=O)OC", "note": "(stereo not drawn) [I.1-648]", "values": [
      {"measurement": "Effect (BRSNS)", "setting": "Brassica napus (BRSNS); dosage 25 g/ha", "value": 30}
    ]},
    {"smiles": "CCOC(=O)/C=C(/C)C#CC(O)(C(C)C)C1(C#N)CC1", "note": "(stereo not drawn) [I.1-136]", "values": [
      {"measurement": "EF [%] (ZEAMX)", "setting": "Zea mays (ZEAMX)", "value": ">5", "unit": "%"}
    ]},
    {"smiles": "CCC(C=CC(O)(c1ccccc1)C1(C#N)CC1)=CC(=O)O", "note": "(racemic) [I.2-201]", "values": [
      {"measurement": "Effect (BRSNS)", "setting": "Brassica napus (BRSNS); dosage 250 g/ha", "value": "10-30"}
    ]}
  ]
}
